Measured values published in patent US20170298081A1, “CONDENSED HETEROCYCLIC COMPOUND” (KASUMA PARTNERS INC., priority 2014, published 2017).

Tests used:
[1] = test system: PCSK9 protein; experiment: Influence of test compound on PCSK9 protein production amount in HepG2 cells (ELISA); type: cell-based, human; details: about 24 hours treatment, intracellular PCSK9 protein by ELISA, read-out: IC50 (50% PCSK9 production-suppressing concentration)
Experimental: A test compound was added to culture supernatant of cells of the human liver cancer-derived cell strain, HepG2 cells, and intracellular amount of the PCSK9 protein was measured by the enzyme-linked immunosorbent assay (ELISA) after 24 hours. Specifically, the HepG2 cells were inoculated into wells of a 96-well microplate at a density of 5 to 7.5×10^4 cells/well, and the culture supernatant was exchanged with the MEM medium containing 10% lipoprotein deficient serum (LPDS) on the next day. After the cells were further cultured for one day, the culture supernatant was exchanged with the 10% LPDS-containing MEM medium containing a test compound, and the cells were treated with the compound for about 24 hours. The medium for treating the cells was prepared by dissolving the test compound in dimethyl sulfoxide (DMSO), and adding the resulting solution to the 10% LPDS-containing medium. The medium for treating cells for control was prepared by adding DMSO to the 10% LPDS-containing medium at the same final concentration. After completion of the treatment of the cells, a solubilization buffer (1% Nonidet P-40 in phosphate buffered saline) was added to the cells to extract proteins, and they were used as a sample.
The PCSK9 protein concentration and the total protein concentration in the sample were measured by using Human PCSK9 ELISA Kit produced by R&D Systems (Cat. No. DPC900), and BCA Protein Assay Reagent. Kit produced by Thermo Scientific (Cat. No. 23227) according to the protocols described in the attached manuals, respectively. The PCSK9 protein concentration in each sample was calculated as a concentration per unit mass of proteins. Then, by using PCSK9 production suppressing ratios at various concentrations obtained in accordance with the equation mentioned below, 50% PCSK9 production-suppressing concentration (IC50) of each compound was calculated with a linear regression equation.
Equation: PCSK9 production-suppressing ratio (%)=[(Average PCSK9 protein concentration in control group−Average PCSK9 protein concentration in test compound-treated group)/Average PCSK9 protein concentration in control group]×100

[2] = test system: dietary hyperlipidemia hamsters; experiment: Efficacy test in dietary hyperlipidemia hamsters (LDL cholesterol decreasing ratio); type: in vivo, Slc:Syrian male hamsters; details: oral once a day for seven days, high fat diet hamsters
Experimental: As test animals, the Slc:Syrian male hamsters were used. In order to create dietary hyperlipidemia models, the hamsters were fed ad libitum with a high fat diet (mixed diet of 0.5% cholesterol and 10% palm oil) for a period from two weeks before the start of the administration of the test compound to the end of the experiment. Blood was collected one day before the day of the start of the administration, and the total blood cholesterol concentration was measured by the direct method using an automatic analyzer. On the basis of this total blood cholesterol concentration, the animals were divided into groups. From the next day, the test compound was orally administered once a day for seven days, and the animals were dissected on the day following the day of the final administration. The LDL-cholesterol concentration in the collected blood was measured by the direct method using an automatic analyzer, and LDL cholesterol decreasing ratio was calculated in accordance with the following equation for each group.
Equation: LDL cholesterol decreasing ratio (%)=[(Average LDL-cholesterol concentration of control group−Average LDL-cholesterol concentration of test compound-administered group)/Average LDL-cholesterol concentration of control group]×100

Structure (SMILES)	IC50 [1]	also measured
COc1ccc2cc3[n+](cc2c1OC)CCc1cc2c(cc1-3)OCO2 [Berberine chloride, reference compound]	> 10000 nM	–
FC(F)(F)c1ccc(-c2nc3ccc(Cl)c(C(F)(F)F)c3o2)cc1 [Example 1, 6-Chloro-7-trifluoromethyl-2-(4-trifluoromethylphenyl)benzoxazole]	0.802 nM	–
Fc1c(C(F)(F)F)ccc2nc(-c3ccc(C(F)(F)F)cc3)oc12 [Example 3, 7-Fluoro-6-trifluoromethyl-2-(4-trifluoromethylphenyl)benzoxazole]	8.19 nM	–
FC(F)(F)c1ccc(-c2nc3c(Cl)c(C(F)(F)F)ccc3o2)cc1 [Example 4, 4-Chloro-5-trifluoromethyl-2-(4-trifluoromethylphenyl)benzoxazole]	0.426 nM	–
FC(F)(F)c1ccc(-c2nc3ccc(I)c(Cl)c3o2)cc1 [Example 6, 7-Chloro-6-iodo-2-(4-trifluoromethylphenyl)benzoxazole]	2.5 nM	LDL cholesterol decreasing ratio (%) ([2]; dose 5 mg/kg): 41.8%
FC(F)(F)c1ccc(-c2nc3ccc(C(F)(F)F)c(Cl)c3o2)cc1 [Example 7, 7-Chloro-6-trifluoromethyl-2-(4-trifluoromethylphenyl)benzoxazole]	0.036 nM	LDL cholesterol decreasing ratio (%) ([2]; dose 0.01 mg/kg): 45.5%; LDL cholesterol decreasing ratio (%) ([2]; dose 0.04 mg/kg): 56.9%
FC(F)(F)c1ccc(-c2nc3c(C(F)(F)F)ccc(Cl)c3o2)cc1 [Example 8, 7-Chloro-4-trifluoromethyl-2-(4-trifluoromethylphenyl)benzoxazole]	0.153 nM	–
N#Cc1ccc2nc(-c3ccc(C(F)(F)F)cc3)oc2c1Cl [Example 9, 7-Chloro-6-cyano-2-(4-trifluoromethylphenyl)benzoxazole]	0.0182 nM	–
N#Cc1cc(Cl)c2nc(-c3ccc(C(F)(F)F)cc3)oc2c1 [Example 11, 4-Chloro-6-cyano-2-(4-trifluoromethylphenyl)benzoxazole]	1.34 nM	–
Fc1c(Cl)cc2nc(-c3ccc(C(F)(F)F)cc3)oc2c1Cl [Example 12, 5,7-Dichloro-6-fluoro-2-(4-trifluoromethylphenyl)benzoxazole]	2.94 nM	–
FC(F)(F)c1ccc(-c2nc3ccc(C4CC4)c(C(F)(F)F)c3o2)cc1 [Example 14, 6-Cyclopropyl-7-trifluoromethyl-2-(4-trifluoromethylphenyl)benzoxazole]	4.54 nM	–
CC(=O)Nc1ccc2nc(-c3ccc(C(F)(F)F)cc3)oc2c1C(F)(F)F [Example 16, 6-Acetamido-7-trifluoromethyl-2-(4-trifluoromethylphenyl)benzoxazole]	2.08 nM	–
O=C(O)CCC(=O)Nc1ccc2nc(-c3ccc(C(F)(F)F)cc3)oc2c1C(F)(F)F [Example 18, 6-(3-Carbonylpropanamido)-7-trifluoromethyl-2-(4-trifluoromethylphenyl)benzoxazole]	16.3 nM	–
N#Cc1ccc2nc(-c3ccc(C(F)(F)F)cc3)oc2c1C(F)(F)F [Example 19, 6-Cyano-7-trifluoromethyl-2-(4-trifluoromethylphenyl)benzoxazole]	0.188 nM	LDL cholesterol decreasing ratio (%) ([2]; dose 1 mg/kg): 35.2%
FC(F)(F)c1ccc(-c2nc3ccc(NC4CC4)c(C(F)(F)F)c3o2)cc1 [Example 20, 6-(Cyclopropylamino)-7-trifluoromethyl-2-(4-trifluoromethylphenyl)benzoxazole]	3.95 nM	–
OCCNc1ccc2nc(-c3ccc(C(F)(F)F)cc3)oc2c1C(F)(F)F [Example 21, 6-(2-Hydroxyethylamino)-7-trifluoromethyl-2-(4-trifluoromethylphenyl)benzoxazole]	5.85 nM	–
COc1cc(C#N)c(Cl)c2oc(-c3ccc(C(F)(F)F)cc3)nc12 [Example 22, 7-Chloro-6-cyano-4-methoxy-2-(4-trifluoromenthylphenyl)benzoxazole]	99 nM	–
CCc1nc2c(ccc3oc(-c4ccc(C(F)(F)F)cc4)nc32)o1 [Example 23, 2-Ethyl-7(4-trifluoromethylphenyl)benzo[2,1-d:3,4-d′]bisoxazole]	52.3 nM	–
FC(F)(F)c1ccc(-c2nc3ccc(C(F)(F)F)cc3o2)cc1 [Example 24, 6-(Trifluoromethyl)-2-[4-(trifluoromethyl)phenyl]benzoxazole]	21.4 nM	LDL cholesterol decreasing ratio (%) ([2]; dose 1 mg/kg): 32.6%

Structure (SMILES)	IC50 [1]	also measured
FC(F)(F)c1ccc(-c2nc3cccc(C(F)(F)F)c3o2)cc1 [Example 25, 7-(Trifluoromethyl)-2-[4-(trifluoromethyl)phenyl]benzoxazole]	24.5 nM	–
FC(F)(F)c1ccc(-c2nc3cc(Cl)c(C(F)(F)F)cc3o2)cc1 [Example 27, 5-Chloro-6-(trifluoromethyl)-2-[4-(trifluoromethyl)phenyl]benzoxazole]	12.3 nM	–
FC(F)(F)c1ccc(-c2nc3cc(C(F)(F)F)cc(Cl)c3o2)cc1 [Example 28, 7-Chloro-5-(trifluoromethyl)-2-[4-(trifluoromethyl)phenyl]benzoxazole]	1.35 nM	LDL cholesterol decreasing ratio (%) ([2]; dose 0.2 mg/kg): 63.6%
N#Cc1ccc2nc(-c3ccc(C(F)(F)F)cc3)oc2c1 [Example 29, 6-Cyano-2-[4-(trifluoromethyl)phenyl]benzoxazole]	27 nM	–
FC(F)(F)c1ccc(-c2nc3c(ccc4cc[nH]c43)o2)cc1 [Example 31, 2-(4-Trifluoromethylphenyl)-8H-pyrrolo[2,3-e]benzoxazole]	29.7 nM	–
Nc1ccc(Br)c2oc(-c3ccc(C(F)(F)F)cc3)nc12 [Example 33, 4-Amino-7-bromo-2-(4-trifluoromethylphenyl)benzoxazole]	4.96 nM	–
Nc1c(Cl)cc(Cl)c2oc(-c3ccc(C(F)(F)F)cc3)nc12 [Example 34, 4-Amino-5,7-dichloro-2-(4-trifluoromethylphenyl)benzoxazole]	20.2 nM	–
Nc1c(Cl)ccc2oc(-c3ccc(C(F)(F)F)cc3)nc12 [Example 35A, 4-Amino-5-chloro-2-(4-trifluoromethylphenyl)benzoxazole]	–	melting point: 132 to 134 °C
Nc1ccc(Cl)c2oc(-c3ccc(C(F)(F)F)cc3)nc12 [Example 35B, 4-Amino-7-chloro-2-(4-trifluoromethylphenyl)benzoxazole]	1.24 nM	melting point: 149 to 150 °C
N#Cc1cc(Cl)c2oc(-c3ccc(C(F)(F)F)cc3)nc2c1N [Example 36, 4-Amino-7-chloro-5-cyano-2-(4-trifluoromethylphenyl)benzoxazole]	5.17 nM	–
N#Cc1ccc(N)c2nc(-c3ccc(C(F)(F)F)cc3)oc12 [Example 38]	27.3 nM	–
CN(C)c1nc2c(ccc3oc(-c4ccc(C(F)(F)F)cc4)nc32)s1 [Example 40, 7-Dimethylamino-2-(4-trifluoromethylphenyl)thiazolo[4,5-e]benzoxazole]	3.97 nM	–
NCc1cccc2oc(-c3ccc(C(F)(F)F)cc3)nc12 [Example 41, 4-Aminomethyl-2-(4-trifluoromethylphenyl)benzoxazole]	19.2 nM	–
[O-][n+]1ccc2c(ccc3oc(-c4ccc(C(F)(F)F)cc4)nc32)c1 [Example 43, 2-[4-(Trifluoromethyl)phenyl]oxazolo[4,5-f]isoquinoline 7-oxide]	25.6 nM	–
Clc1ccc2nc(-c3nc4c(Cl)cccc4o3)sc2c1 [Example 44, 4-Chloro-2-(6-chloro-benzothiazol-2-yl)benzoxazole]	13.9 nM	–
Nc1c(-c2ccc(C(F)(F)F)cc2)[nH]c2c(Cl)c(Cl)ccc12 [Example 45, 3-Amino-6,7-dichloro-2-(4-trifluoromethylphenyl)indole]	2.68 nM	–
CCN(CC)c1nc2c(ccc3cc(-c4ccc(C(F)(F)F)cc4)[nH]c32)o1 [Example 47, 2-Diethylamino-7-(4-trifluoromenthylphenyl)-8H-pyrrolo[2,3-e]benzoxazole]	45.4 nM	–
CC(C)OC(=O)C(C)(C)Oc1ccc(C(=O)c2ccc(Cl)cc2)cc1 [Phenofibrate, reference compound]	–	LDL cholesterol decreasing ratio (%) ([2]; dose 50 mg/kg): 25.7%
